Assay results published in ChEMBL document CHEMBL1144772, “Synthesis, in vitro pharmacology, and pharmacokinetic profiles of 2-[1-amino-1-carboxy-2-(9H-xanthen-9-yl)-ethyl]-1-fluorocyclopropanecarboxylic acid and its 6-heptyl ester, a potent mGluR2 antagonist” (Bioorg Med Chem, 2008).

Legend:
[1] = Cmax in Sprague-Dawley rat at 10 mg/kg, po; format: ADME, organism-based; set-up: dose 10 mg/kg, route oral; settings: in vivo
[2] = Transformation of (+)-17 to (+)-16a in monkey liver S9 fraction at 3 uM after 60 mins; settings: rhesus monkey
[3] = Half life in Sprague-Dawley rat at 10 mg/kg, po; format: ADME, organism-based; set-up: dose 10 mg/kg, route oral; settings: in vivo
[4] = Transformation of (+)-17 to (+)-16a in human liver S9 fraction at 3 uM after 60 mins
[5] = Transformation of (+)-17 to (+)-16a in rat liver S9 fraction at 3 uM after 60 mins
[6] = AUC (0 to infinity) in Sprague-Dawley rat at 10 mg/kg, po; format: ADME, organism-based; set-up: dose 10 mg/kg, route oral, time infinity; settings: plasma
[7] = Tmax in Sprague-Dawley rat at 10 mg/kg, po; format: ADME, organism-based; set-up: dose 10 mg/kg, route oral; settings: in vivo
[8] = biological target: Metabotropic glutamate receptor 2 (Homo sapiens, UniProt Q14416); assay: Displacement of [3H]-MGS0008 from mGluR2 expressed in CHO cells; format: cell-based
Sequence of Metabotropic glutamate receptor 2 (Q14416 whole entry): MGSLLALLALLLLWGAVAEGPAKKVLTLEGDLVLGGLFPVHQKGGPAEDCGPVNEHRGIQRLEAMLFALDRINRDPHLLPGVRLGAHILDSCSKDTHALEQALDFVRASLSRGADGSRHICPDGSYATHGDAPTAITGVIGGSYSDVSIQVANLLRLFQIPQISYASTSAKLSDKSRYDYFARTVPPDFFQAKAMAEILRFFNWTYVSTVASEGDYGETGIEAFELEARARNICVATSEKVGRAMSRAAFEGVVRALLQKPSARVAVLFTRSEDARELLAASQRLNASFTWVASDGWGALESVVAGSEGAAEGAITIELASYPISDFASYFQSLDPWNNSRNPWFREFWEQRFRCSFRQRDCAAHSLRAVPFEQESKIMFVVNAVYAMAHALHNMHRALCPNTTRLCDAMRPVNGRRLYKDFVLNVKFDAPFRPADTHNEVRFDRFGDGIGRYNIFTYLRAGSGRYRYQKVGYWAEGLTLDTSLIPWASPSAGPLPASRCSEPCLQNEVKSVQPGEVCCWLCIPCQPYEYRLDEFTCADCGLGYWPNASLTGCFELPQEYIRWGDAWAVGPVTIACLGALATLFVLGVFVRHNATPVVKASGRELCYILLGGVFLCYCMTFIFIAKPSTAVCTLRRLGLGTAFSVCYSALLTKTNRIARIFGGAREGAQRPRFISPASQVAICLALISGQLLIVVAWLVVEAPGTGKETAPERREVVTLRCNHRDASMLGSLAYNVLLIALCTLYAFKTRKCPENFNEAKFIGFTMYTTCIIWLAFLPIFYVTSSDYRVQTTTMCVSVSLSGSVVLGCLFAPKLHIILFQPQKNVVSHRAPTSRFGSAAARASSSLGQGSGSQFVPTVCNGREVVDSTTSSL

Structure (SMILES) | Cmax [1] [ng/mL] | half-life [3] [min] | AUC(0-inf) [6] [ng·h/mL] | Tmax [7] [h] | IC50 [8] [nM] | other results
CCCCCCCOC(=O)[C@@]1(F)C[C@@H]1[C@@](N)(CC1c2ccccc2Oc2ccccc21)C(=O)O | 8640 | 232 | 78000 | 2 | – | transformation ratio at 1 h, 3 µM [2]: 7.3%; transformation ratio at 1 h, 3 µM [4]: 12.1%; transformation ratio at 1 h, 3 µM [5]: 68.1%
N[C@](CC1c2ccccc2Oc2ccccc21)(C(=O)O)[C@H]1C[C@]1(F)C(=O)O | 308 | 303 | 3310 | 2.67 | 3.49 | –
N[C@@](CC1c2ccccc2Oc2ccccc21)(C(=O)O)[C@@H]1C[C@@]1(F)C(=O)O | – | – | – | – | > 10000 | –
N[C@](CC1c2ccccc2Oc2ccccc21)(C(=O)O)[C@H]1C[C@@H]1C(=O)O | – | – | 284 | – | – | –
NC(CC1c2ccccc2Oc2ccccc21)(C(=O)O)C1CC1(F)C(=O)O (racemic; form 1) | – | – | – | – | 4.45 | –
NC(CC1c2ccccc2Oc2ccccc21)(C(=O)O)C1CC1(F)C(=O)O (racemic; form 2) | – | – | – | – | 211 | –
